Experimental data published in publication PMC6943751 (The Journal of infectious diseases, 2014).

Target: Neuraminidase (NA) of A/Bethesda/956/2006, NA-R292K (Influenza A virus, UniProt F1KL32, R292K)
Format: biochemical, influenza A(H3N2) virus

Q: For `CCC(CC)[C@H](NC(C)=O)[C@@H]1[C@H](O)[C@@H](C(=O)O)C[C@H]1N=C(N)N` [Peramivir, peramivir], which “Fold-Difference of IC50 compared with the IC50 of WT virus” value is on record?
A: 16.27 ± 0.89 (71) fold

Q: What about the IC50 (read-out: IC50, nM ± SD) of the same compound?
A: 16.3 nM
